“And” between values parts separate entries of the source, which are not always exact repeats. Equal values may be shown once. Where a name gives a salt, the structure may show the parent alone.
Assays:
[1] = tested on: RSV A2; assay: Western blot of total viral protein levels (pan-RSV antibody); type: cell-based, Respiratory syncytial virus; settings: 24 h p.i.
Protocol: Prior studies in HEp-2 cells have shown that RSV mRNA and proteins can be detected 4–6 h p.i., while assembly is initiated roughly 10–12 h p.i., and mature viral filaments can be observed at the cell surface 16–18 h p.i.[26]–[28]. […] To verify this finding, a traditional plaque assay was performed to quantify infectious virus production from the supernatants of statin-treated RSV A2-infected HEp-2 cells. […] Lysates were also collected from RSV A2-infected HEp-2 cells (MOI 0.5) 24 h p.i. to probe viral protein expression by western blot. […] Changes to the expression and localization of the viral fusion glycoprotein (F) and nucleoprotein (N) were visualized by high-resolution confocal microscopy.
Box plots indicate the complete range (whiskers), interquartile range (box), and median (line) of measurements. […] Blots were stained using a pan-RSV polyclonal antibody (B65860G) that detects all viral antigens (see Supplementary Fig. 2). GAPDH controls were processed on a parallel blot with the same samples and protein load. Values are reported as means ± SEM (n = 3 cell lysates). d High-resolution confocal microscopy of the F (green) and N (magenta) proteins in RSV A2-infected HEp-2 cells (MOI 0.5). […] Scale bars = 20 µm. Statistics were calculated by a one-way ANOVA with a Dunnett’s multiple comparisons post hoc test (*P < 0.05, ***P < 0.001, ****P < 0.0001).
Supplementary Figure 2. Changes to viralprotein expression by statin or Rho GTPase inhibitor treatment. HEp-2 cells were infected with […]
post-viralexposure. Cell lysates were collected 24 h p.i.and viralprotein expression was probed using a pan-RSV polyclonal antibody (B65860G) which detects allviralantigens (n ≥2 cell lysates).GAPDH controlswere processed on parallelblots withthe same samples and protein load. […]

[2] = tested on: RSV-GFP; assay: microbe, parasite or virus in culture; type: cell-based, Respiratory syncytial virus
Summary of the method: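 Cells infected with RSV-GFP (MOI 0.5) for 90 min in serum-free medium; library compounds added within 1 h of infection at 10 µM final (0.1% DMSO). At 48 h p.i., infection rate was imaged as fraction of nuclei within GFP area, with mean nuclear intensity and size serving as the viability measure.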

SMILES: CC(C)c1c(C(=O)Nc2ccccc2)c(-c2ccccc2)c(-c2ccc(F)cc2)n1CC[C@@H](O)C[C@@H](O)CC(=O)O [Atorvastatin, Atorvastatin calcium salt trihydrate]
- Total viral protein levels (GAPDH normalized) ([1]; MOI 0.5, atorvastatin 3.5 uM, simvastatin 1.5 uM, one value per lysate): 1.385 and 1.458 and 1.299
- total viral protein levels by western blot ([1]; atorvastatin 3.5 µM, simvastatin 1.5 µM, EHT 1864 20.0 µM): decrease in total viral protein levels
- RSV inhibition in the screen ([2]; HEp-2, RSV-GFP): inhibit RSV at low micromolar concentrations
- inhibition at 10 µM ([2]; human respiratory syncytial virus, HEp-2, read-out: RSV-GFP inhibition (%)): 56.4%

Source: article PMC8556396, “Statin-mediated disruption of Rho GTPase prenylation and activity inhibits respiratory syncytial virus infection” (Communications Biology, 2021)
